Each block holds one molecule with its values, some of them ahead of it.
What was measured:
Tyrosinase = Tyrosinase hinderance effect; format: biochemical, Mushroom; details: 37° C., 10 minutes, absorbance 475 nm; concentration not given
Protocol: Tyrosinase enzyme is that extracted from Mushroom and used the product of SIGMA Company. At first, tyrosine being the substrate was dissolved in the distilled water to make 0.3 mg/ml of solution and 1.0 ml of each solution was put in the tube, and then, 1.0 ml of potassium-phosphate buffer solution (0.1 mol concentration, pH 6.8) and 0.7 ml of the distilled water were added.
Each sample liquid, 0.2 ml, which was prepared by mixing the enzyme-treated saponin fraction derived from the root of camellia sinensis of the above Example 1 of the present invention in ethanol solution in the proper concentration was put in the reaction liquid and then was reacted in 37° C. incubator for 10 minutes. At this time, the control was prepared by adding only 0.2 ml of solution, instead of each of sample liquid, ascorbic acid was used as the positive control. 0.1 ml of 2500 units/ml tyrosinase solution was added to the reaction liquid and reacted in 37° C. incubator for 10 minutes. The tube with the reaction liquid was put in the ice water to stop the reaction by quenching and the absorbance at the wavelength of 475 nm was determined with the photoelectric spectrophotometer, and then the result was represented in the below Table 21. Each of tyrosinase hinderance effect was calculated by the below mathematical formula 5.

elastase = molecular target: T1, elastase (Sus scrofa, UniProt P00772); experiment: Inhibition of elastase activity; format: biochemical; details: EGCG 250 μM as positive control; 25° C., 15 minutes, absorbance 415 nm
T1 construct: purchased Sigma Aldrich E0127
Protocol: An ability hindering elastase activity of the enzyme-treated saponin fraction derived from the root of Camellia sinensis was determined in comparison with EGCG. The elastase and substrate as used were commercially purchased from Sigma Aldrich in […]0127), and the saponin fraction was used as the enzyme-treated saponin fraction derived from the root of Camellia sinensis roots as obtained from Example 1. 50 μL of Test material as represented in the below Table 1 and 20 μg/mL elastase·50 μL of solution of type III were mixed with that prepared with […] Tris-HCl buffer (pH 8.0) in 96-well plate. 250 μM of EGCG was used as a positive control, and non-treated group as a negative control used the distilled water. […] After completing the reaction, the absorption at the wavelength of 415 nm was determined. […] A: No addition of the experimental sample, Absorbance at the wavelength of 415 nm with the addition of enzyme B: No addition of the experimental sample, Absorbance at the wavelength of 415 nm without the addition of enzyme C: Addition of the experimental sample, Absorbance at the wavelength of 415 nm with the addition of enzyme D: Addition of the experimental sample, Absorbance at the wavelength of 415 nm without the addition of enzyme

B16/F10 melanoma cell = experiment: Inhibition of melanin generation in B16/F10 melanoma cell; format: cell-based; details: sample comprising 0.001 wt % of test material, cultured 3 days
Protocol: The sample comprising 0.001 wt % of the saponin fraction derived from the root of camellia sinensis of the above Example 1 and kojic acid, respectively, as the test material, was added to the culture of B16/F10 melanoma cell (Korean cell strain bank) at the constant concentration and cultured for 3 days, washed with PBS, dissolved with 1N NaOH and the absorbance was determined at 405 nm. At this time, the cell added no test material was considered as the control and the degree for hindering the melanin generation of each test material was determined by comparing the contents of melanin in the control. The inhibition rate of melanin generation was calculated according to mathematical formula 6 as below and its result was represented in Table 22.

5α-reductase = molecular target: T2, 5α-reductase (Homo sapiens, UniProt P31213); experiment: Inhibition of 5α-reductase activity, [14C]testosterone to DHT in HEK293-5αR2 cell; format: cell-based; details: 2 hours, negative control 48.0
T2 construct: 3xFLAG; expressed in transfected cells; host or cells: HEK293
T2 sequence (P31213 1-254): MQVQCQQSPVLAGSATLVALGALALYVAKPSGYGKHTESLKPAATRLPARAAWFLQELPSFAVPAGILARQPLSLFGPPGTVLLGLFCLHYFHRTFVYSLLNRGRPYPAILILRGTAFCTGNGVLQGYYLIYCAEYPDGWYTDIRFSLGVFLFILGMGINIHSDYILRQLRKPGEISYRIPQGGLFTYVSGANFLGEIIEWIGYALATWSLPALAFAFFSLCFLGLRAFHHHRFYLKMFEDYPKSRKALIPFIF
Protocol: In order to identify the effect for inhibiting 5α-reductase activity, a ratio of [^14C]testosterone changed into [^14C]dihydrotestosterone (DHT) in HEK293-5αR2 cell was determined. […] The next day, new medium with the enzyme substrate and inhibitor was changed. 0.05 μCi [^14C]testosterone (Amersham Pharmacia biotech, UK) as the substrate of the medium was used.
Thereafter, the culture media was collected and steroid was extracted with 800 μl of ethylacetate and then, after separating the organic solvent layer of the top and drying it, the remaining residue was dissolved with 50 μl of ethylacetate and developed it by using ethylacetate-hexane (1:1) as a solvent on Silica plastic sheet kieselgel 60 F254.

collagenase (MMP-1) = experiment: Collagenase (MMP-1) generation in human fibroblast, ELISA; format: cell-based; details: saponin fraction 30 μg/ml for 24 hours, non-treated group = 100
Protocol: Fibroblast of a human was placed in 96-well plate (96-well microtiter plate) with Dulbecco's Modified Eagle's Media (DMEM) containing 2.5% fetal bovine serum to be 5,000 cells/well, and was cultured at 5% CO2, at the temperature of 37° C. of incubator to grow to about 70˜80% confluency. The saponin fraction derived from the root of Camellia sinensis of the above Example 1 was treated for 24 hours in a concentration of 30 μg/ml, and then the cell culture was collected.
The degree of the collagenase generation for the cell culture collected by using the commercially available collagenase determination Apparatus (AmershamPharmacia Corporation in U.S.A., Catalog #: RPN 2610) was determined. At first, the collected cell culture was placed in 96-well plate evenly covered with the first collagenase antibody and antigen-antibody reaction was performed in thermostat container for three hours. […]
The absorbance of 96-well plate representing yellow color was determined by using Absorptiometer at 405 nm, the degree of collagenase synthesis was calculated by the below Mathematical formula 2, and the result was shown in Table 2 as below. In this case, the absorbance for the reaction of the cell culture collected from the group without treating with the composition was used as the control.

procollagen type I = experiment: Promotion of collagen biosynthesis in fibroblast, procollagen type I ELISA; format: cell-based; details: 10 ng/ml, 24 hours, non-treated group = 100
Protocol: In order to investigate the promoting effect of the collagen biosynthesis, the enzyme-treated saponin fraction derived from the root of camellia sinensis of the present invention was determined in comparison with TGF-β. At first, fibroblast was seeded as 10^5 cells per a well in 24-well plate and cultured until growing to about 90% confluency. After incubating it with non-serum DMEM medium for 24 hours, it was treated with 10 ng/ml of the saponin fraction derived from the root of camellia sinensis of the above Example 1 and TGF-β dissolved in the non-serum medium, respectively and incubated in CO2 incubator for 24 hours. The supernatant of them was taken and it was examined as to whether procollagen was increased or not by using procollagen type I ELISA kit. The result is represented in Table 8, and the ability for synthesizing the collagen was compared by considering that the non-treated group was 100.

T1 sequence (P00772 27-266): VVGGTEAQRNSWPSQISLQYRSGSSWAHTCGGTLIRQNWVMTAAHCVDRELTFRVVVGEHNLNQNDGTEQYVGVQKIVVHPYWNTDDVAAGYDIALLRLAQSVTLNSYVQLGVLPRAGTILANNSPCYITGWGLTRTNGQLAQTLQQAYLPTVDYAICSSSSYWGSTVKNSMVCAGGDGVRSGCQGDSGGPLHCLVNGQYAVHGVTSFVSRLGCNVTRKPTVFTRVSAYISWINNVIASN

Tyrosnase hinderance rate (%) (Tyrosinase): 52%
Molecule: O=C1O[C@H]([C@@H](O)CO)C(O)=C1O [Ascorbic acid]

Degree of the inhibiton (%) of elastase activity (elastase): 65%
Molecule: O=C(O[C@@H]1Cc2c(O)cc(O)cc2O[C@@H]1c1cc(O)c(O)c(O)c1)c1cc(O)c(O)c(O)c1 [EGCG]

Molecule: O=c1cc(CO)occ1O [Kojic acid]
Inhibition rate of melanin generation (%) (B16/F10 melanoma cell): 53%

Molecule: CC(C)(C)NC(=O)[C@H]1CC[C@H]2[C@@H]3CC[C@H]4NC(=O)C=C[C@]4(C)[C@H]3CC[C@]12C [Positive control, finasteride]
Conversion rate (%) of testosterone into dihydrotestosterone (5α-reductase): 27.6%

Molecule: CC1=C(/C=C/C(C)=C/C=C/C(C)=C/C(=O)O)C(C)(C)CCC1 [Retinoic acid]
Degree of the expression (%) of collagenase (collagenase (MMP-1)): 75%

Molecule: TGF-β: comparison substance for collagen biosynthesis
Ability for synthesizing collagen (%) (procollagen type I): 183.5%

From patent US10022415B2, “External composition for skin containing an enzyme-treated saponin fraction derived from the root of Camellia sinensis” (AMOREPACIFIC CORPORATION, priority 2014, dated 2018)
